Calls of active or inactive are those of the source.
Assays:
H9c2 = test: cells; assay type: functional, cell-based; conditions: Rattus norvegicus, H9c2, Myocardium;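 note: confirmatory concentration-response retest of ultra-high-throughput screening hits for modulation of myocardial damage; cell death induced by hydrogen peroxide oxidative stress; compound pretreatment for 60 min then peroxide exposure for 2 h; potency is for protecting the cells against peroxide damage rather than for killing them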
Caspase-3 = target: T1, Caspase-3 (Homo sapiens, UniProt P42574); test: SAR Analysis of small molecule inhibitors of Sentrin-specific proteases (SENPs) using a Caspase-3 Selectivity assay. [Related pubchem assays (depositor defined):AID2540, AID2599, AID434973, AID489001]; assay type: functional
T1 sequence (P42574 whole entry): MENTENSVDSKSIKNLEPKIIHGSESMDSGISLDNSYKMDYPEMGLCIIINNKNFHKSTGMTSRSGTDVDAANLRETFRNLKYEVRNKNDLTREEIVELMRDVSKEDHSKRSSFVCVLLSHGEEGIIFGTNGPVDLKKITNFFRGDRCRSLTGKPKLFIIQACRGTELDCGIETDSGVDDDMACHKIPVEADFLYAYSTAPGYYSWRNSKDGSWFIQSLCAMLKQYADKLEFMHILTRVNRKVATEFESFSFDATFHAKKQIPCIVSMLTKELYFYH

[1] = target: T2, Sentrin-specific protease 6 (Homo sapiens, UniProt Q9GZR1); test: SAR Analysis of small molecule inhibitors of Sentrin-specific protease 6 (SENP6) using a Luminescent assay. [Related pubchem assays (depositor defined):AID2582, AID2599]; assay type: functional
T2 sequence (Q9GZR1 whole entry): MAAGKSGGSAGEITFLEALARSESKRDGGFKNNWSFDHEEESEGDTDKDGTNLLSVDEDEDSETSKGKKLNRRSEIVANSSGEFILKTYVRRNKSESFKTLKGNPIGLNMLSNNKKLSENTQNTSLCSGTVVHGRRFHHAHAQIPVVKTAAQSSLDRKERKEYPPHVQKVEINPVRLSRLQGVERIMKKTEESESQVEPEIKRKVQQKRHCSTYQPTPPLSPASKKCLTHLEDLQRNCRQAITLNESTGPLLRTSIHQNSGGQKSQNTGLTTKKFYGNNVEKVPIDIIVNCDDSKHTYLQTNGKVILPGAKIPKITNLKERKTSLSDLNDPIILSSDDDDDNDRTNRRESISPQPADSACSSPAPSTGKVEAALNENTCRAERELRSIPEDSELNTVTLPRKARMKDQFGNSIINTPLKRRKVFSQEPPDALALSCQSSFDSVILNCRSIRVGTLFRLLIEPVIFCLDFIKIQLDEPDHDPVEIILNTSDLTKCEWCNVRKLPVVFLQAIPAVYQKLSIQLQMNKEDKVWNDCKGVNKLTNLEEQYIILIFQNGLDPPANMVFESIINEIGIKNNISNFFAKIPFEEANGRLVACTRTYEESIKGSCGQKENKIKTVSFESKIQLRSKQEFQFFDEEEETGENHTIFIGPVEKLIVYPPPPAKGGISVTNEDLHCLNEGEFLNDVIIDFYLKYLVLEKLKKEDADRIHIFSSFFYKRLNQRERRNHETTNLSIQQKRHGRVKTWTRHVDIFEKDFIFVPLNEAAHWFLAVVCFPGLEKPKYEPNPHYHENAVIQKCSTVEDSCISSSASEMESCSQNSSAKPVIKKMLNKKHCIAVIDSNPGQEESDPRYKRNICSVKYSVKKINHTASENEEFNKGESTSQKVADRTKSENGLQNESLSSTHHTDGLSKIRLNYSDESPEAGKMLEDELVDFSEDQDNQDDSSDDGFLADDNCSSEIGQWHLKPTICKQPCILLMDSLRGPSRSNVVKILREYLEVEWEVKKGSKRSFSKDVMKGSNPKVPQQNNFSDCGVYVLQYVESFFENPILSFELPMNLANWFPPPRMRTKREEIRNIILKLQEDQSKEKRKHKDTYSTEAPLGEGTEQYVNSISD

[2] = target: T3, Sentrin-specific protease 8 (Homo sapiens, UniProt Q96LD8); test: inhibition of human SENP8 cleavage activity – biochemical, luminescence, SAR follow-up (AID 504501); assay type: functional
T3 sequence (Q96LD8 whole entry): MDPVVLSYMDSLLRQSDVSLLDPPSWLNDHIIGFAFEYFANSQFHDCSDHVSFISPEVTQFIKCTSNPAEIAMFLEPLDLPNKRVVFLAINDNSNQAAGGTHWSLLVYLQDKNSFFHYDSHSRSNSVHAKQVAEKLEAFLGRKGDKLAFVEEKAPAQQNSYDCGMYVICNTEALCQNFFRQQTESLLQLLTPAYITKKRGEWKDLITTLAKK

[3] = target: T4, Sentrin-specific protease 7 (Homo sapiens, UniProt Q9BQF6); test: inhibition of human SENP7 cleavage activity – biochemical, luminescence, SAR follow-up (AID 504497); assay type: functional
T4 sequence (Q9BQF6 whole entry): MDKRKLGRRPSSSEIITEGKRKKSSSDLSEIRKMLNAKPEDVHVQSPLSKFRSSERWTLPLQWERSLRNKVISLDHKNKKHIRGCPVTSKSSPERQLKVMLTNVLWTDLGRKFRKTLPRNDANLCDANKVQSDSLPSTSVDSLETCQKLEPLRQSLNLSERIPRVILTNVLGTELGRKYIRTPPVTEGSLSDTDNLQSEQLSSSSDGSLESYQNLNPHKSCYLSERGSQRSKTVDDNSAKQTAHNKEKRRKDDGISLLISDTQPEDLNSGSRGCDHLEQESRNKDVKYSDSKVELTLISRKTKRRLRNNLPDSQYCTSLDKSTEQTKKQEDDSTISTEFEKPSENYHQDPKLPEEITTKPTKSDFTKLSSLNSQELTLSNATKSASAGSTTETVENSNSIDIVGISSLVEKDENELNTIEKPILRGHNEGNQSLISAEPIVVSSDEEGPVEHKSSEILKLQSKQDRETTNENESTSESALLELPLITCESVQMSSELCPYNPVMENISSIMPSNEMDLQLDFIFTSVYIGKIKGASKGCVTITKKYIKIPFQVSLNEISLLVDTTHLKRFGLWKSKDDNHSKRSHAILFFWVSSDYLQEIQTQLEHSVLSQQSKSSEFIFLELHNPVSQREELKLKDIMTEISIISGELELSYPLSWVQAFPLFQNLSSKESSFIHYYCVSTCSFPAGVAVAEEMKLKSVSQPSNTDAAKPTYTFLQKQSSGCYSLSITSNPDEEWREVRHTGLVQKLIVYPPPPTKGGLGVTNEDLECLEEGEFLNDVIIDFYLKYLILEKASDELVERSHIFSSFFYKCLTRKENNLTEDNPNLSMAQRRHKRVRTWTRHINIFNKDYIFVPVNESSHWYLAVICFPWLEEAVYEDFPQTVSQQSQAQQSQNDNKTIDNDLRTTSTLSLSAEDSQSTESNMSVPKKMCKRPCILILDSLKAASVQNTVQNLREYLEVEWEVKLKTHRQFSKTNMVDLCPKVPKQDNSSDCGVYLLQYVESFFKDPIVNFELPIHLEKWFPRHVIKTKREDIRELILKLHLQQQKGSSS

[4] = intracellular Trypanosoma cruzi inhibitors in host cells – cell-based, plate reader, cherry-pick samples, set 3, dose response (AID 651818); assay type: functional;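 note: compounds incubated with infected cells for about four days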
[5] = blockers of CRF-binding protein–CRF-R2 complex – cell-based, uHTS hits, 384-well, dose response (AID 651639); assay type: functional, Homo sapiens; conditions: read-out: IC50_Mean
[6] = target: T5, Corticotropin-releasing factor receptor 2/Corticotropin-releasing factor-binding protein (Homo sapiens, UniProt P24387+Q13324); test: activators of CRF receptor 2 with binding protein – uHTS hits, confirmation (AID 602473); assay type: functional; conditions: read-out: EC50_Mean
T5 sequence (Q13324 whole entry): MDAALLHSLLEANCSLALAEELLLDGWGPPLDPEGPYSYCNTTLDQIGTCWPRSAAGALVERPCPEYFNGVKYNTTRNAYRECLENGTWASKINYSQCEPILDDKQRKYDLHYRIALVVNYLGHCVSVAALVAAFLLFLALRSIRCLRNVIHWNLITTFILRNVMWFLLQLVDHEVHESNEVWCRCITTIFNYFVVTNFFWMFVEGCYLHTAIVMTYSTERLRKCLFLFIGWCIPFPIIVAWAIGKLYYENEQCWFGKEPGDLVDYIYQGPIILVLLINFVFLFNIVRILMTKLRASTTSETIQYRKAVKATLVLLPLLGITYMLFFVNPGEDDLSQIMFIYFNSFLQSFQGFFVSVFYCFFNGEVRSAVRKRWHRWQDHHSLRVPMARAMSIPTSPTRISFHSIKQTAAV
T5 sequence (P24387 whole entry): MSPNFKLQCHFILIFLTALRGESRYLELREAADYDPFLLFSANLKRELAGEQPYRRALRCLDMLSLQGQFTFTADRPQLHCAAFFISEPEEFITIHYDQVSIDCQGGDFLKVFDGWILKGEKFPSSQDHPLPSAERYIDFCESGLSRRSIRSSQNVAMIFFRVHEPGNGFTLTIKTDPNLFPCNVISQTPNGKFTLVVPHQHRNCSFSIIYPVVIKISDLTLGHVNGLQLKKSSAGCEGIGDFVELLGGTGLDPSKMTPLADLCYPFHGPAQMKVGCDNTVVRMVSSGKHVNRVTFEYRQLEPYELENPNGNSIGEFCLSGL

[7] = target: T5, Corticotropin-releasing factor receptor 2/Corticotropin-releasing factor-binding protein; test: Dose Response confirmation of uHTS hits for small molecule antagonists of the CRF-binding protein and CRF-R2 receptor complex.; assay type: functional; conditions: read-out: IC50_Mean
INS1 = test: INS-1E survival protection against cytokine death – cell-based, luminescence, retest, dose response (AID 449756); assay type: functional; conditions: Rattus norvegicus;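 note: cell death triggered by IL-1 beta plus TNF-alpha plus IFN-gamma mixture; protective hits raise ATP signal compared with cytokine alone wells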
SN12K1 = test: cells; assay type: functional; conditions: Homo sapiens

Cc1ccc(C(C)C)c(OCC(=O)NNC(=O)Cn2[nH]c(=O)c3ccccc3c2=O)c1
IC50 (H9c2): > 79 µM (inactive)

Cc1[nH]c(=O)sc1S(=O)(=O)N1CCN(C(=O)c2sc3cc(F)ccc3c2Cl)CC1
IC50 (Caspase-3): > 99 µM (inactive)
IC50 [1]: > 99 µM (inactive)
IC50 [2]: > 99 µM (inactive)
IC50 [3]: > 99 µM (inactive)

C[C@@H]1CN([C@H](C)CO)C(=O)Cc2cc(NC(=O)Nc3ccc(F)cc3)ccc2O[C@H]1CN(C)CC1CCCCC1
AC50 [4]: 6.17 µM (active)

Clc1cccc(-c2nnc(SC/C=C/c3ccccc3)n2Cc2ccco2)c1
IC50 [5]: > 20 µM (inactive)
EC50 [6]: > 53 µM (inactive)
IC50 [7]: 4.74 µM (active)

COC(=O)c1ccc(CSc2nc3c(c(=O)n2-c2ccc(Br)cc2)SCC3)o1
IC50 [5]: 15.4 µM (active)
EC50 [6]: > 53 µM (inactive)
IC50 [7]: 7.86 µM (active)

CN(C)CCN(C(=O)c1ccc(Cl)s1)c1nc2ccc(F)cc2s1
IC50 (Caspase-3): > 99 µM (inactive)
IC50 [1]: > 99 µM (inactive)
IC50 [2]: > 99 µM (inactive)
IC50 [3]: > 99 µM (inactive)

Cc1ccc(C(=O)Nc2nc(-c3ccccn3)cs2)s1
AC50 (INS1): 1.67 µM (active)
IC50 (H9c2): > 79 µM (inactive)

CCOc1ccc2nc(NC(=O)Cn3c(=O)oc4ccc(C(=O)N5CCCC5)cc43)sc2c1
IC50 (Caspase-3): > 99 µM (inactive)
IC50 [1]: > 99 µM (inactive)
IC50 [2]: > 99 µM (inactive)
IC50 [3]: > 99 µM (inactive)

CCOC(=O)c1c(C)[nH]c(C(=O)COc2ccc3ccc(=O)oc3c2)c1C
IC50 (H9c2): 23.7 µM (active)

O=C(OC(=O)n1ccc2ccccc21)n1ccc2ccccc21
GI50 (SN12K1): > 100 µM (inactive)

Cc1ccc(S(=O)(=O)c2nnn3c2nc(N2CCOCC2)c2ccccc23)c(C)c1
IC50 [5]: > 20 µM (inactive)
EC50 [6]: > 53 µM (inactive)
IC50 [7]: < 0.368 µM (active)

C[C@@H]1CN([C@H](C)CO)C(=O)Cc2cc(NC(=O)Nc3cccc4ccccc34)ccc2O[C@@H]1CN(C)Cc1ccc(C(F)(F)F)cc1
AC50 [4]: 4.02 µM (active)

Cc1noc(C)c1S(=O)(=O)Nc1ccc2c(c1)C(=O)N([C@@H](C)CO)C[C@H](C)[C@H](CN(C)Cc1ccc(C(=O)Nc3ccccc3N)cc1)O2
AC50 [4]: 2.08 µM (active)

O=C(NCc1ccc2c(c1)OCO2)c1c(F)c(F)c(F)c(F)c1F
IC50 [5]: 8.28 µM (active)
EC50 [6]: > 53 µM (inactive)
IC50 [7]: 18.7 µM (active)

CCOc1cc(/C=C(\C#N)C(=O)Nc2ccc(S(N)(=O)=O)cc2)ccc1OCCN1CCOCC1
IC50 (H9c2): > 79 µM (inactive)

CCCCc1ccc2nc(NC(=O)c3oc4ccccc4c3C)sc2c1
IC50 (Caspase-3): > 99 µM (inactive)
IC50 [1]: > 99 µM (inactive)
IC50 [2]: > 99 µM (inactive)
IC50 [3]: > 99 µM (inactive)

CC(C)(C)OC(=O)C[C@@H]1C/C=C\C[C@@H](CC(=O)N[C@H](CO)Cc2ccccc2)C(=O)NC[C@@H](c2ccccc2)OC1=O
IC50 (H9c2): > 79 µM (inactive)

C[C@@H]1CN([C@H](C)CO)C(=O)Cc2cc(NC(=O)Cc3cn(C)c4ccccc34)ccc2O[C@H]1CN(C)CC1CCCCC1
AC50 [4]: 8.13 µM (active)

C[C@@H]1CN([C@H](C)CO)C(=O)Cc2cc(NS(=O)(=O)c3ccc(Cl)cc3)ccc2O[C@H]1CN(C)CC1CCCCC1
AC50 [4]: 2.67 µM (active)

CCCc1ccccc1-c1nc(/C=C/c2ccccc2)no1
IC50 (Caspase-3): > 99 µM (inactive)
IC50 [1]: > 99 µM (inactive)
IC50 [2]: > 99 µM (inactive)
IC50 [3]: > 99 µM (inactive)

C[C@H](CO)N1C[C@H](C)[C@@H](CN(C)S(=O)(=O)c2ccc(F)cc2)Oc2ccc(NC(=O)Nc3ccc4c(c3)OCO4)cc2C1=O
IC50 (H9c2): > 79 µM (inactive)

C[C@@H]1CN([C@@H](C)CO)C(=O)c2cc(NC(=O)Cc3cn(C)c4ccccc34)ccc2O[C@H]1CN(C)Cc1ccc(C(F)(F)F)cc1
AC50 [4]: 4.31 µM (active)
